According to US12024707B2, “Methods and compositions for modulating lncRNAs and methods of treatment based on lncRNA expression” (Washington University, priority 2020, dated 2024):
Values joined by “and” are separate entries in the source; they are usually repeats but may differ in a detail not shown here. Equal values may be shown once. Where a name gives a salt, the structure may show the parent alone. Read-outs that look alike come from different tables or passages of the source.

Test system: HT29 RAMS11 overexpressing cells
Test: High-throughput viability assay (resazurin), 119 FDA-approved anticancer drugs, RAMS11 overexpressing cells (Clone1, Clone2)
[1] = OE1 (RAMS11 overexpression clone 1), 0.1 uM drug, 72 h, vs empty vector control
[2] = OE1 (RAMS11 overexpression clone 1), 1 uM drug, 72 h, vs empty vector control
[3] = OE1 (RAMS11 overexpression clone 1), 10 uM drug, 72 h, vs empty vector control
[4] = OE2 (RAMS11 overexpression clone 2), 0.1 uM drug, 72 h, vs empty vector control
[5] = OE2 (RAMS11 overexpression clone 2), 1 uM drug, 72 h, vs empty vector control
[6] = OE2 (RAMS11 overexpression clone 2), 10 uM drug, 72 h, vs empty vector control

SMILES | Viability Fold Change [1] | Viability Fold Change [2] | Viability Fold Change [3] | Viability Fold Change [4] | Viability Fold Change [5] | Viability Fold Change [6] | Viability Fold Change
OC[C@H]1O[C@@H](n2cnc3c2NC=NC[C@H]3O)C[C@@H]1O [Pentostatin] | 0.9312 | 0.9502 | 0.8658 | 0.9287 | 0.9777 | 1.078 | –
O=C(CCBr)N1CCN(C(=O)CCBr)CC1 [Pipobroman] | 0.9413 | 0.9838 | 0.9918 | 0.9432 | 0.9438 | 0.8949 | –
c1cc(CN2CCCNCCNCCCNCC2)ccc1CN1CCCNCCNCCCNCC1 [Plerixafor] | 0.9866 | 1.152 | 1.057 | 1.085 | 1.208 | 1.062 | –
Nc1cccc2c1C(=O)N(C1CCC(=O)NC1=O)C2=O (centres unmarked) [Pomalidomide] | 0.9335 | 0.9509 | 0.9014 | 0.9444 | 0.9433 | 0.933 | –
Cc1ccc(C(=O)Nc2ccc(CN3CCN(C)CC3)c(C(F)(F)F)c2)cc1C#Cc1cnc2cccnn12 [Ponatinib] | – | – | – | – | – | – | 1.056 and 0.9383 and 0.9645 and 1.199 and 0.9342 and 1.001
C#CCC(Cc1cnc2nc(N)nc(N)c2n1)c1ccc(C(=O)N[C@@H](CCC(=O)O)C(=O)O)cc1 (some centres unmarked) [Pralatrexate] | 0.7405 | 0.9216 | 1.034 | 0.8579 | 0.9781 | 1.119 | –
CNNCc1ccc(C(=O)NC(C)C)cc1 [Procarbazine] | 1.003 | 1.042 | 0.9825 | 0.9328 | 1.046 | 0.9303 | –
O=C(c1ccc(OCCN2CCCCC2)cc1)c1c(-c2ccc(O)cc2)sc2cc(O)ccc12 [Raloxifene] | 0.9457 | 0.9244 | 0.9067 | 0.9401 | 0.9282 | 0.9671 | –
CO[C@H]1C[C@@H]2CC[C@@H](C)[C@@](O)(O2)C(=O)C(=O)N2CCCC[C@H]2C(=O)O[C@H]([C@H](C)C[C@@H]2CC[C@@H](O)[C@H](OC)C2)CC(=O)[C@H](C)/C=C(\C)[C@@H](O)[C@@H](OC)C(=O)[C@H](C)C[C@H](C)/C=C/C=C/C=C/1C [Rapamycin] | 0.7003 | 0.7403 | 0.7222 | 0.6232 | 0.772 | 0.7575 | –
CNC(=O)c1cc(Oc2ccc(NC(=O)Nc3ccc(Cl)c(C(F)(F)F)c3)c(F)c2)ccn1 [Regorafenib] | 0.938 | 0.9476 | 1.158 | 0.9919 | 1.09 | 1.143 | –
C/C=C1\NC(=O)[C@H]2CSSCC/C=C/[C@H](CC(=O)N[C@H](C(C)C)C(=O)N2)OC(=O)[C@H](C(C)C)NC1=O [Romidepsin] | 6.243 | 5.327 | 4.427 | 6.211 | 5.577 | 4.697 | –
CNC(=O)c1cc(Oc2ccc(NC(=O)Nc3ccc(Cl)c(C(F)(F)F)c3)cc2)ccn1 [Sorafenib] | 0.8542 | 0.8177 | 1.022 | 0.8959 | 0.8971 | 1.017 | –
CN(N=O)C(=O)N[C@@H](C=O)[C@@H](O)[C@H](O)[C@H](O)CO [Streptozocin] | 1.06 | 1.011 | 0.905 | 0.9729 | 1.036 | 0.9955 | –
CCN(CC)CCNC(=O)c1c(C)[nH]c(/C=C2\C(=O)Nc3ccc(F)cc32)c1C [Sunitinib] | 0.8337 | 0.8856 | 0.2329 | 0.914 | 0.9165 | 0.5714 | –
CC/C(=C(\c1ccccc1)c1ccc(OCCN(C)C)cc1)c1ccccc1 [Tamoxifen Citrate] | 1.127 | 1.144 | 1.077 | 1.097 | 1.08 | 1.059 | –
Cn1nnc2c(C(N)=O)ncn2c1=O [Temozolomide] | 0.9344 | 0.9467 | 0.8777 | 0.8975 | 1.032 | 0.9198 | –
CO[C@H]1C[C@@H]2CC[C@@H](C)[C@@](O)(O2)C(=O)C(=O)N2CCCC[C@H]2C(=O)O[C@H]([C@H](C)C[C@@H]2CC[C@@H](OC(=O)C(C)(CO)CO)[C@H](OC)C2)CC(=O)[C@H](C)/C=C(\C)[C@@H](O)[C@@H](OC)C(=O)[C@H](C)C[C@H](C)/C=C/C=C/C=C/1C [Temsirolimus] | 0.7059 | 0.6733 | 0.6861 | 0.6816 | 0.7302 | 0.693 | –
COc1cc([C@@H]2c3cc4c(cc3[C@@H](O[C@@H]3O[C@@H]5CO[C@@H](c6cccs6)O[C@H]5[C@H](O)[C@H]3O)[C@H]3COC(=O)[C@H]23)OCO4)cc(OC)c1O [Teniopside] | 1.038 | 1.327 | 2.288 | 0.9657 | 1.349 | 2.261 | –
O=C1CCC(N2C(=O)c3ccccc3C2=O)C(=O)N1 (centres unmarked) [Thalidomide] | 0.9251 | 0.9878 | 0.9064 | 0.8995 | 1 | 1.074 | –
Nc1nc2nc[nH]c2c(=S)[nH]1 [Thioguanine] | 0.9423 | 0.9288 | 0.9702 | 0.8995 | 0.8724 | 1.01 | –
S=P(N1CC1)(N1CC1)N1CC1 [Thiotepa] | – | – | – | – | – | – | 0.7908 and 0.9826 and 0.9401 and 0.9694 and 0.9433 and 0.8817
CC[C@@]1(O)C(=O)OCc2c1cc1n(c2=O)Cc2cc3c(CN(C)C)c(O)ccc3nc2-1 [Topotecan HCL] | 1.11 | 2.225 | 3.389 | 1.018 | 2.127 | 2.763 | –
CC(=O)Nc1cccc(-n2c(=O)n(C3CC3)c(=O)c3c(Nc4ccc(I)cc4F)n(C)c(=O)c(C)c32)c1 [Trametinib] | 1.35 | 1.732 | 1.975 | 1.213 | 1.641 | 1.886 | –
